Assay results reported in patent US4551455A, “Method of treating high blood pressure using 6-[4-(1-imidazolyl)-phenyl]-5-methyl-3-oxo-tetrahydropyridazines” (A. Nattermann & Cie GmbH, priority 1982, dated 1985).
Read-outs that look alike come from different tables or passages of the source.

Tests used:
[1] = test system: normotensive Wistar rats; assay: blood pressure-lowering effect on narcotized rats; format: in vivo, rat (male adult normotensive Wistar); settings: for Average arterial pressure / Heart frequency: rats, 3.16 mg/kg orally, n = 5, narcotized 90 min after application; for Average arterial pressure: control 112.8 ± 4.8; for Heart frequency: control 307 ± 11
Experimental: (§1) For investigation of the pharmacodynamic properties, the following methods (1) through (4) were employed.
(1) The blood pressure-lowering effect on narcotized rats was evaluated. For testing of the blood pressure-lowering effect, the invention substance 6-[4-(imidazolyl)phenyl]-5-methyl-3-oxo-2,3,4,5-tetrahydropyridazine (A) was administered in parallel with the reference substance 1-hydrazinophthalazine (hydralazine) (C) orally to groups of 5 male adult normotensive Wistar rats. Ninety minutes after application, the animal was narcotized with 75 mg/kg of intraperitoneal phenobarbital, and the trachea and the carotid artery were cannulated.

[2] = test system: thrombin formation; assay: reduction of thrombin formation in narcotized rats; format: in vivo, rat
Experimental: as §1
(4) The reduction of thrombin formation in narcotized rats was evaluated. The test of the reduction of thrombin formation by the substances of the present invention 6-[4-(1-imidazolyl)phenyl]-5-methyl-3-oxo-2,3,4,5-tetrahydropyridazine (A) and 6-[4-(2-methyl-1-imidazolyl)-phenyl]-5-methyl-3-oxo-2,3,4,5-[…] (B) in parallel with the reference substance acetylsalicylic acid (D) was carried out by oral administration to narcotized rats.

[3] = test system: collagen-induced thrombocyte aggregation; assay: inhibition of collagen-induced thrombocyte aggregation in vitro (method of Born, modified); format: cell-based, human; settings: read-out: IC50 (concentration that caused a 50% reduction of the aggregation)
Experimental: as §1
(3) The inhibition of collagen-induced thrombocyte aggregation in vitro was evaluated. The suppression of collagen-induced thrombocyte aggregation in vitro was carried out on thrombocyte-rich human plasma with the inventive substance 6-[4-(1-imidazolyl)-phenyl]-5-methyl-3-oxo-2,3,4,5-tetrahydropyridazine (A) in parallel with the reference substance acetylsalicyclic acid (D) according to the method of Born (Nature, 194, 927-929 (1962)) in modified form (simultaneous application). The concentration that caused a 50% reduction of the aggregation was defined as IC50 in Table 3 set forth below.

[4] = test system: anaesthetized dogs; assay: blood pressure-lowering effect on anaesthetized dogs; format: in vivo, dog; settings: for influence on blood pressure (in words): Table 2, anaesthetized dogs; for Pressure, Δ mmHg, diastolic / Pressure, Δ mmHg, systolic: anaesthetized dogs, 0.316 mg/kg intraduodenally, change in pressure
Experimental: as §1
(2) The blood pressure-lowering effect on anaesthetized dogs was evaluated. The influence on the systolic and diastolic blood preessure of the subject compounds 6-[4-(1-imidazolyl)phenyl]-5-methyl-3-oxo-2,3,4,5-tetrahydropyridazine (A) and 6-[4-(2-methyl-1-imidazolyl)-phenyl]-5-methyl-3-oxo-2,3,4,5-tetrahydropyridazine (B) were studied on the anaesthetized dogs by intraduodenal administration.

Q: For `NNc1nncc2ccccc12` [Substance C, 1-hydrazinophthalazine, reference compound], which Average arterial pressure [1] is on record?
A: 82.0 ± 6 mmHg

Q: And the Heart frequency [1]?
A: 356 ± 8 beats/min.

Q: `CC(=O)Oc1ccccc1C(=O)O` [Substance D, acetylsalicylic acid, reference compound] was tested. Which “Reduction in % (thrombin formation)” value ([2]; 100 mg/kg orally) did it give?
A: -45%

Q: And the IC50 ([3]; Homo sapiens)?
A: > 300000 nM

Q: Which “Reduction in % (thrombin formation)” value ([2]; 10 mg/kg orally) does the source give for `Cc1nccn1-c1ccc(C2=NNC(=O)CC2C)cc1` (stereo not shown) [Substance B, 6-[4-(2-methyl-1-imidazolyl)-phenyl]-5-methyl-3-oxo-2,3,4,5-tetrahydropyridazine] here?
A: -48%

Q: What about the “influence on blood pressure (in words)” value [4] of the same molecule?
A: strong influence on blood pressure

Q: What about the “Pressure, Δ mmHg, diastolic” value [4] of the same molecule?
A: -43.80 mmHg

Q: What about the “Pressure, Δ mmHg, systolic” value [4] of the same molecule?
A: -48.18 mmHg

Q: With `CC1CC(=O)NN=C1c1ccc(-n2ccnc2)cc1` (stereo not shown) [Substance A, 6-[4-(1-imidazolyl)phenyl]-5-methyl-3-oxo-2,3,4,5-tetrahydropyridazine] as the molecule, how does the “Reduction in % (thrombin formation)” value ([2]; 10 mg/kg orally) read?
A: -52%

Q: And the IC50 ([3]; thrombocyte-rich human plasma, collagen-induced, simultaneous application)?
A: 2400 nM

Q: What about the “influence on blood pressure (in words)” value [4] of the same molecule?
A: strong influence on blood pressure

Q: What about the “Pressure, Δ mmHg, diastolic” value [4] of the same molecule?
A: -51.42 mmHg

Q: What about the “Pressure, Δ mmHg, systolic” value [4] of the same molecule?
A: -51.77 mmHg

Q: What about the “blood pressure-lowering effect on the rats (in words)” value ([1]; Table 1, in comparison with hydralazine C) of the same molecule?
A: powerful blood pressure-lowering effect

Q: What about the Average arterial pressure [1] of the same molecule?
A: 54.8 ± 8.9 mmHg

Q: And the Heart frequency [1]?
A: 415 ± 17 beats/min.
